# In US10058530B2, “Combination therapies for the treatment of Alzheimer's disease and related disorders” (The General Hospital Corporation, priority 2012, dated 2018):
# “Also recorded” adds a separate entry of the source. Where two headings read alike, the source gives them in different places.
# What was measured:
# Aβ fibril formation = settings: cited from earlier work
# [1] = tested on: Alzheimer's disease patients; settings: Phase 2a; cited from earlier work
# [2] = in vivo; cited from earlier work
# AD patients = settings: some AD patients; Wettstein and Spiegel, 1985; cited from earlier work
# Aβ peptide = experiment: Aβ aggregation by thioflavin T assay; assay type: biochemical; settings: for inhibition of Aβ amyloid peptide polymerization into oligomers and higher order aggregates: summary of four separate in vitro assays, nanomolar concentrations; for inhibition of Aβ aggregation, thioflavin fluorescence: nanomolar concentration
# Description: One of the most routinely used approaches to monitor Aβ polymerization is the thioflavin T binding assay. […] Aβ peptide at 5 μM was mixed with 10 μM thioflavin T with drug at different concentrations.
# (§1) One of the most routinely used approaches to monitor Aβ polymerization is the thioflavin T binding assay (Elmaleh, 2014; Hori, 2015). […] Aβ peptide at 5 μM was mixed with 10 μM thioflavin T with drug at different concentrations.
# Fibrillization of synthetic Aβ40 (FIG. 12A, left column and FIG. 12B, left column) or Aβ42 (FIG. 12A, right column and FIG. 12B, right column) peptides was followed over 1 hour.
# [3] = Brain concentration of PIB analog TS3124; settings: in vivo
# microglial cells = experiment: Aβ uptake by cultured microglial cells; assay type: cell-based; settings: 0, 10 nM, 10 μM or 1 mM, 16 hours
# Description: After the incubation, the concentrations of […]-42 (right panel) in media were measured using Aβ ELISA and normalized with microglia cell number and according to the PBS control condition. (n=3 experiments; *, P<0.05, **, P<0.01)
# [4] = inhalation studies, Beach et al. 1981; cited from earlier work
# TBS soluble Aβ = TBS soluble Aβ level in brain of APP/PS1 mice by WAKO ELISA; assay type: in vivo
# Source text: (§2) The treatment was given by IP injection everyday for 7 days before sacrificing the mice and harvesting the brain. Brain extracts were quantified for the total amount of Aβ40, Aβ42 and Aβ oligomers.
# (§3) FIG. 5 illustrates the measurement of TBS soluble Aβ level by WAKO ELISA. […] As indicated, the number of animals per group is N=3 or 5, average±SE. The p value is significant using one-way ANOVA test (Bonferroni's test).
# Aβ42 [5] = target: T1, Aβ42 (Homo sapiens, UniProt P05067); experiment: TBS soluble Aβ42 level in brain of APP/PS1 mice by WAKO ELISA; assay type: in vivo; parameters: from tissue; host or cells: brain TBS-soluble extract of APP/PS1 transgenic mice; settings: two higher doses (2.1 mg/kg and 3.15 mg/kg), IP daily 7 days
# Source text: as §2, §3
# Aβ40 [6] = target: T2, Aβ40 (Homo sapiens, UniProt P05067); experiment: TBS soluble Aβ40 level in brain of APP/PS1 mice by WAKO ELISA; assay type: in vivo; parameters: from tissue; host or cells: brain TBS-soluble extract of APP/PS1 transgenic mice; settings: two higher doses (2.1 mg/kg and 3.15 mg/kg), IP daily 7 days
# Source text: as §2, §3
# Aβ42 [7] = target: T1, Aβ42; experiment: Thioflavin T fibrillization assay, synthetic Aβ42; assay type: biochemical; parameters: host or cells: synthetic peptide; settings: 5 nM, 50 nM and 500 nM; followed over 1 hour; smaller effects than on Aβ40
# Description: as §1
# (§4) Fibrillization of synthetic Aβ40 (FIG. 12A, left column and FIG. 12B, left column) or Aβ42 (FIG. 12A, right column and FIG. 12B, right column) peptides was followed over 1 hour. The corresponding Vmax index (milli-units/minute) is indicated on each graph.
# Abeta (1-40) peptides = Abeta (1-40) peptides (Homo sapiens, UniProt P05067); experiment: UV aggregation assay; assay type: biochemical
# Description: Abeta peptide aggregation and the impact of drugs to slow or prevent Abeta aggregation was measured by a UV absorbance assay (Findeis, 1999). Abeta (1-40) peptides, at 50 μM, were mixed with 50 μM drug in assay buffer and the plate was incubated at ambient temperature on a plate reader. The UV absorbance was monitored at 540 nm over a 2-3 h period.
# Polymerization of Aβ-monomer peptides into clusters of trimers and tetramers initiates the Aβ aggregation process into protofibrils and then into fibrils that form amyloid plaques.
# [8] = human
# Aβ oligomer = experiment: TBS soluble Aβ oligomer level in brain of APP/PS1 mice (IBL 82E1-82E1 oligomer ELISA); assay type: in vivo; settings: IP daily 7 days
# Source text: as §2
# FIG. 6 illustrates the measurement of TBS soluble Aβ oligomer level IBL oligomer ELISA (82E1-82E1). […] FIGS. 6B and 6C show the difference the experiments with Gdn and those without Gdn using Aβ WAKO ELISA. N=3 or 5 animals per group, average±SE. The p value is not significant using one-way ANOVA test (Bonferroni's test).
# [9] = tested on: microglia (Iba1) around amyloid deposits; experiment: Immunostaining of Aβ and microglial marker Iba1 in brain sections of APP/PS1 mice; assay type: in vivo; settings: 3.15 mg/kg daily for seven days, vs PBS
# [10] = human lung, high inspiratory rates, dry powder inhaler; cited from earlier work
# [11] = J. Pharm. Sci. 92(6), 2003; cited from earlier work
# clinical = settings: human, in vivo; for MRT: mean residence time in plasma
# Aβ40 [12] = target: T2, Aβ40; experiment: Thioflavin T fibrillization assay, synthetic Aβ40; assay type: biochemical; parameters: host or cells: synthetic peptide; settings: 5 nM, 50 nM and 500 nM; followed over 1 hour
# Description: as §1, §4
# cholinergic neurons = settings: aged rhesus monkeys; cited from earlier work
# [13] = tested on: basal forebrain cholinergic neurons; settings: rats; cited from earlier work
# Chain of Abeta (1-40) peptides (P05067 672-711 limits assumed): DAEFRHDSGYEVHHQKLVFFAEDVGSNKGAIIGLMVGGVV
# T1 sequence (P05067 672-713 limits assumed): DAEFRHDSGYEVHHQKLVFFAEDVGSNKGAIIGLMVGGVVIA
# T2 sequence (P05067 672-711 limits assumed): as the sequence (P05067 672-711 limits assumed) above
compound,measurement,setting,value
"O=c1c(O)c(-c2ccc(O)c(O)c2)oc2ccccc12 [3,3′,4′-Trihydroxyflavone, 3,3′,4′-Tri-hydroxyflavone]",Effects on Aβ fibril formation,Aβ fibril formation,Inhibitory
"O=c1c(O)c(-c2cccc(O)c2)oc2cc(O)ccc12 [3,3′,7-Trihydroxyflavone, 3,3′,7-Tri-hydroxyflavone]",Effects on Aβ fibril formation,Aβ fibril formation,Enhancing
"O=c1c(O)c(-c2ccc(O)cc2)oc2cc(O)ccc12 [3,4′,7-Trihydroxyflavone, 3,4′,7-Tri-hydroxyflavone]",Effects on Aβ fibril formation,Aβ fibril formation,Inhibitory
"O=c1c(O)c(-c2ccc(O)cc2)oc2cc(O)ccc12 [5-Deoxykaempferol, 5-Deoxy-kaempferol]",Effects on Aβ fibril formation,Aβ fibril formation,Enhancing
O=c1cc(-c2ccccc2)oc2cc(O)cc(O)c12 [Chrysin],Effects on Aβ fibril formation,Aβ fibril formation,Enhancing
O=c1c(O)c(-c2ccc(O)cc2)oc2cc(O)cc(O)c12 [Kaempferol],Effects on Aβ fibril formation,Aβ fibril formation,Enhancing
O=c1cc(-c2ccc(O)c(O)c2)oc2cc(O)cc(O)c12 [Luteolin],Effects on Aβ fibril formation,Aβ fibril formation,Inhibitory
O=c1c(O)c(-c2cc(O)c(O)c(O)c2)oc2cc(O)cc(O)c12 [Myricetin],Effects on Aβ fibril formation,Aβ fibril formation,Inhibitory
O=c1c(O)c(-c2ccc(O)c(O)c2)oc2cc(O)cc(O)c12 [Quercetin],Effects on Aβ fibril formation,Aβ fibril formation,Inhibitory
O=C(NC1CN2CCC1CC2)c1n[nH]c2ccccc12 (stereo not drawn) [R3487],effect on multiple measures of cognition,[1],statistically significant effect
"CCN1C(=O)CC2(CCN(C)CC2)C1=O [RS-86, 2-ethyl-8-methyl-2,8-diazospiro-4,5-decan-1,3-dione]",brain penetration,[2],low
same,"cognitive function, mood and social behavior",AD patients,"improves cognitive function, mood and social behavior"
O=C([O-])c1cc(=O)c2c(OCC(F)COc3cccc4oc(C(=O)[O-])cc(=O)c34)cccc2o1.[Na+].[Na+] [TS734],inhibition of Aβ amyloid peptide polymerization into oligomers and higher order aggregates,Aβ peptide,effectively inhibits
CC(F)CNc1ccc(-c2nc3ccc(O)cc3s2)cc1 (stereo not drawn) [TS3124],brain concentration,[3],4%
O=C([O-])c1cc(=O)c2c(OCC(O)COc3cccc4oc(C(=O)[O-])cc(=O)c34)cccc2o1.[Na+].[Na+] [cromolyn sodium],Aβ40 levels in media of microglia culture,microglial cells; 50 nM synthetic Aβ40,dose-dependent decrease
same,Aβ42 levels in media of microglia culture,microglial cells; 50 nM synthetic Aβ42,dose-dependent decrease
same,pulmonary and cardiovascular (CV) function assessments,[4],no treatment effect
same,monomeric Aβ (Gdn−),"TBS soluble Aβ; APP/PS1 mice, IP daily 7 days, no guanidine",decease; also recorded: reduction
same,decrease of total soluble Aβ levels,TBS soluble Aβ; after 1 week of peripheral administration,over 50%
same,decrease in the amount of Aβ42,Aβ42 [5],up to 50%
same,decrease in the amount of Aβ40,Aβ40 [6],up to 50%
same,"Aβ42 fibrillization, Thioflavin T fluorescence",Aβ42 [7],significantly decreased
same,inhibition of Aβ peptide polymerization,Abeta (1-40) peptides,8 fold
same,inhibition of the rate of Aβ polymerization,Abeta (1-40) peptides; equimolar with Aβ (50 μM),7 fold
same,time to 50% polymerization,"Abeta (1-40) peptides; equimolar with Aβ (50 μM), 14 minutes in absence of drug",75 min
same,AUC (plasma),[8]; 17.1 mg inhaled,147.5±67.1 ng/mlxh
same,"AUC (plasma), range",[8]; 17.1 mg inhaled,44.7-287.0 ng/mlxh
same,maximum plasma concentration,[8]; 17.1 mg inhaled,47.1 ± 33.6 ng/mL
same,"maximum plasma concentration, range",[8]; 17.1 mg inhaled,14.0 to 133 ng/mL
same,time of maximum plasma concentration,[8]; 17.1 mg inhaled,23.3 ± 16.9 min
same,"time of maximum plasma concentration, range",[8]; 17.1 mg inhaled,5 to 60 min
same,AUC (plasma),[8]; 34.2 mg inhaled (double dose),254.4±93.8 ng/mlxh
same,"AUC (plasma), range",[8]; 34.2 mg inhaled (double dose),122.1-443.3 ng/mlxh
same,maximum plasma concentration,[8]; 34.2 mg inhaled (double dose),95.0 ± 45.5 ng/mL
same,"maximum plasma concentration, range",[8]; 34.2 mg inhaled (double dose),36.1 to 236 ng/mL
same,time of maximum plasma concentration,[8]; 34.2 mg inhaled (double dose),22.2 ± 19.4 min
same,"time of maximum plasma concentration, range",[8]; 34.2 mg inhaled (double dose),5 to 60 min
same,plasma concentration at 12 hours following inhalation,"[8]; inhaled, expected",negligible
same,"Aβ oligomer level as difference with and without Gdn, WAKO ELISA",Aβ oligomer,not changed
same,percentage of Iba1 immunoreactivity overlapping with amyloid,[9],higher percentage of Iba1 immunoreactivity overlapping with amyloid
same,percentage of Iba1 immunoreactivity overlapping with amyloid,[9]; listed as Cromolyn Sodium,increased overlap between Aβ and Iba1
same,concentration at which Aβ peptide polymerization is inhibited,Aβ peptide,5 nM
same,"inhibition of Aβ aggregation, thioflavin fluorescence",Aβ peptide,inhibition of Aβ aggregation; also recorded: inhibiting effect
same,"inhibition of Aβ aggregation, thioflavin fluorescence",Aβ peptide; listed as CO399,inhibition of Aβ aggregation
same,inhibition of Aβ amyloid peptide polymerization into oligomers and higher order aggregates,Aβ peptide,inhibits its polymerization into oligomers and higher order aggregates; also recorded: effectively inhibits
same,inhibition of Aβ amyloid peptide polymerization into oligomers and higher order aggregates,Aβ peptide; listed as cromolyn,effectively inhibits
same,inhaled drug-delivered-dose absorbed into the bloodstream,[10],10-15%
same,% PSA,[11],44
same,LogP,[11],1.9
same,PSA,[11],189
same,MRT,"clinical; inhaled or intranasal, 17.1 mg, 17.1 mg inhaled",3.3 ± 2.9 h
same,MRT,"clinical; inhaled or intranasal, 17.1 mg, range, 17.1 mg inhaled",0.79 to 12.1 h
same,MRT,"clinical; inhaled or intranasal, 34.2 mg, 34.2 mg inhaled (double dose)",2.8 ± 1 h
same,MRT,"clinical; inhaled or intranasal, 34.2 mg, range, 34.2 mg inhaled (double dose)",1 to 5.4 h
same,half-life,"clinical; inhaled or intranasal, half-life of clearance from plasma, inhaled",1.75 ± 0.9 h
same,half-life,"clinical; inhaled or intranasal, half-life of clearance from plasma, range, inhaled",0.5 to 3.7 h
same,half-life,"clinical; plasma half-life corresponding to mean residence time, 17.1 mg inhaled",~2.3 h
same,"Aβ40 fibrillization, Thioflavin T fluorescence",Aβ40 [12],significantly decreased
Fisetin,Effects on Aβ fibril formation,Aβ fibril formation,Inhibitory
NGF: nerve growth factor; CERE-110 is NGF gene therapy,cholinergic axonal density,cholinergic neurons,restores cholinergic axonal density in aged monkeys to levels observed in young monkeys
same,cholinergic neuron atrophy,cholinergic neurons,ameliorates cholinergic neuron atrophy
same,age-related behavioral decline,[13],reversed age-related behavioral decline
same,cholinergic neuron cell death,[13],prevented cholinergic neuron cell death
